In patent US20240269128A1, “COMPOUNDS FOR TREATING OR PREVENTING ALZHEIMER'S DISEASE” (THE UNITED STATES OF AMERICA, as represented by the …, priority 2021, published 2024):

Tests used:
[1] = system: murine microglial cell line BV-2; assay: LPS-induced neuroinflammation in BV-2 microglial cells (cytokines by MSD V-PLEX, MTT); format: cell-based, mouse
Method: Lipopolysaccharide (LPS)-Induced Neuroinflammation: The murine microglial cell line BV-2 was cultivated in DMEM medium supplemented with 10% FCS, 1% penicillin/streptomycin and 2 mM L-glutamine (culture medium). For LPS stimulation assay, 5000 BV-2 cells per well (uncoated 96 well plates) were plated out and the medium was changed to treatment medium (DMEM, 5% FCS, 2 mM L-glutamine). After changing cells to treatment medium, drug compounds were administered 1 hour before LPS stimulation (Sigma-Aldrich; L6529; 1 mg/ml stock in ddH2O, final concentration in well: 100 ng/ml (dilutions in medium)). Cells treated with vehicle, cells treated with LPS alone, as well as cells treated with LPS plus reference item (dexamethasone 10 μM, Sigma D4902) served as controls. After 24 h of stimulation, cell supernatants were collected for the cytokine measurement (V-PLEX Proinflammatory Panel 1 Mouse Kit, K15048D, Mesoscale) and cells were subjected to MTT assay.
MTT Assay: MTT solution was added to each well in a final concentration of 0.5 mg/mL. After 2 h, the MTT containing medium was aspirated. Cells were lysed in 3% SDS and the formazan crystals were dissolved in isopropanol/HCl. Optical density was measured with a Cytation 5 (Biotek) multimode reader at wavelength 570 nm. Values were calculated as percent of control values (vehicle control or lesion control).
After changing cells to treatment medium, HCQ (0.25 μM, 2.5 μM and 25 μM) was applied 1 hour before LPS stimulation (Sigma-Aldrich; L6529; 1 mg/ml stock in ddH2O, final concentration in well: 100 ng/ml (dilutions in medium)).

[2] = system: hippocampal cell cultures; settings: Rzemieniec et al. 2019; cited from earlier work
iPSCs = assay: LPS induced neuroinflammation (iPSCs); format: cell-based; settings: posterior probability of a protective effect
Method: Cell-based assays: For each combination of drugs and assay, the posterior probability P(Hi|data) of protective, neutral, and adverse drug effect (formal hypotheses H1, H0, H2, respectively) were evaluated. Dose-response relationships (x-y data) were modeled with a Bayesian nonlinear regression model:
and Bayesian estimation of the posterior density of the fold change was performed using default settings of the Markov chain Monte Carlo samples implemented by the PyMC python library. For efficient sample, each bioactivity data set was standardized such that […] corresponded to one standard deviation. Diagnostic criteria (posterior sample of fitted curves, effective sample sizes, values of the r statistic, and Markov chain standard errors) were inspected for the fit and three poorly fitted data sets out of a total of 91 data sets were excluded.

[3] = system: hippocampal CA1 synapses of APP/PS1 mice; assay: Late long-term potentiation, field recordings in hippocampal slices; design: species or system mouse; settings: for S1 fEPSP slope at the end of the experiment / potentiation of S1 fEPSP slope after STET: APP/PS1 slices
[4] = system: hippocampal neuronal cells; settings: Lee et al. 2019; cited from earlier work
BV-2 cells = assay: Aβ1-42 clearance assay; format: cell-based, mouse; settings: posterior probability of a protective effect, Bayesian dose-response model
Method: AB Clearance: For the amyloid beta (Aβ) clearance assay, 20000 BV-2 cells per well (uncoated 96 well plates) were plated out. After changing cells to treatment medium, drug compounds were administered 1 hour before Aβ stimulation (Bachem 4061966; final concentration in well: 200 ng/ml (dilutions in medium)). Cells treated with vehicle and cells treated with Aβ alone served as controls. After 3 h of Aβ stimulation, cell supernatants were collected for the Aβ measurement and cells were carefully washed twice with PBS and thereafter lysed in 35 μL cell lysis buffer (50 mM Tris-HCl, pH 7.4, 150 mM NaCl, 5 mM EDTA, 1% SDS) supplemented with protease inhibitors. Supernatants and cell lysates were analyzed for human Aβ42 with MSD® V-PLEX Human Aβ42 Peptide (6E10) Kit (K151LBE, Mesoscale Discovery). The immune assay was carried out according to the manual and plates were read on the MESO QuickPlex SQ 120.
Aβ1-42 clearance: For Abeta (Aβ1-42) clearance assay, 20,000 BV-2 cells per well (uncoated 96 well plates) were plated out. After changing cells to treatment medium, HCQ (0.25 μM, 2.5 μM and 25 μM) was applied 1 hour before Aβ1-42 stimulation (Bachem 4061966; final concentration in well: 200 ng/ml (dilutions in medium)). Cells treated with vehicle (0.1% DMSO) and cells treated with Aβ1-42 alone served as controls. After 3 h of Aβ1-42 stimulation, cell supernatants were collected for the Aβ1-42 measurement and cells were carefully washed twice with PBS and thereafter lysed in 35 μL cell lysis buffer (50 mM Tris-HCl, pH 7.4, 150 mM NaCl, 5 mM EDTA, 1% SDS) supplemented with protease inhibitors. Supernatants and cell lysates were analyzed for human Aβ1-42 with MSD® V-PLEX Human Aβ42 Peptide (6E10) Kit (K151LBE, Mesoscale Discovery). The immune assay was carried out according to the manufacturer's manual and plates were read on the MESO QuickPlex SQ 120.
Aβ Clearance: 20,000 BV2 cells per well (uncoated 96-well plates were plated out. After changing cells to treatment medium, drug compounds were administered 1 hour before Aβ stimulation (final concentration in well 200 ng/ml; dilutions in medium). Cells treated with vehicle and cells treated with Aβ alone served as controls. After 3 hours of Aβ stimulation, cell supernatants were collected for the Aβ measurement and cells were carefully washed twice with PBS and thereafter lysed in 35 μl of cell lysis buffer (50 mM tris-HCl, pH 7.4, 150 mM NaCl, 5 mM EDTA, and 1% SDS) supplemented with protease inhibitors. Supernatants and cell lysates were analyzed for human Aβ42 with the MSD V-PLEX Human Aβ42 Peptide (6E10) Kit (K151LBE, Mesoscale Discovery). The immune assay was carried out according to the manual, and plates were read on MESO QuickPlex SQ 120 (Meso Scale Diagnostics, Rockville, MD).
For Aβ clearance assay, 20,000 BV-2 cells per well (uncoated 96 well plates) were plated out. After 24 hours, medium was changed to treatment medium (DMEM, 5% FCS, 2 mM L-glutamine) and cells were maintained in treatment medium for the remaining culture period. After changing cells to treatment medium, the test items were administered 1 hour before Aβ stimulation (Bachem 4061966; final concentration in well: 200 ng/mL (dilutions in medium)). Cells treated with vehicle, cells treated with Aβ alone, as well as wells with Aβ but no cells served as controls. All wells were handled the same way. After 3 h of Aβ stimulation, cell supernatants were collected for the Aβ measurement and cells were carefully washed twice with PBS and thereafter lysed in 35 μl cell lysis buffer (50 mM Tris-HCl, pH 7.4, 150 mM NaCl, 5 mM EDTA, 1% SDS) supplemented with protease inhibitors. Cells were incubated for 15 min at RT on a plate shaker, samples were frozen at −80° C. until further use. The experiment was performed in n=6 technical replicates for all groups. […]

[5] = system: SH-SY5Y-hTau441(V337M/R406W) cells; assay: Tau phosphorylation assay (Phospho(Thr231)/Total Tau); format: cell-based, human
Method: Tau Phosphorylation: SH-SY5Y-hTau441(V337M/R406W) cells were maintained in culture medium (DMEM medium, 10% FCS, 1% NEAA, 1% L-Glutamine, 100 g/mL Gentamycin, 300 μg/mL Geneticin G-418) and differentiated with 10 μM retinoic acid (RA) for 5 days changing medium every 2 to 3 days. Prior to the treatment, cells were seeded onto 24-well plates at a cell density of 2×10^5 cells per well (DIV1). Drug compounds were applied on DIV2. After 24 h of incubation (DIV3), cells on 24-well plates were harvested in 60 μL RIPA-Buffer [50 mM Tris pH 7.4, 1% Nonidet P40, 0.25% Na-deoxy-cholate, 150 mM NaCl, 1 mM EDTA supplemented with freshly added 1 μM NaF, 0.2 mM Na-ortho-vanadate, 80 μM Glycerophosphate, protease (Calbiochem) and phosphatase (Sigma) inhibitor cocktail]. Protein concentration was determined by BCA assay (Pierce, ThermoFisher) and samples were adjusted to a uniform total protein concentration. Total Tau and phosphorylated Tau were determined by immunosorbent assay from Mesoscale Discovery (Phospho(Thr231)/Total Tau Kit K15121D, Mesoscale Discovery).
Tau phosphorylation: SH-SY5Y-hTau441(V337M/R406W) cells were maintained in culture medium (DMEM medium, 10% FCS, 1% NEAA, 1% L-Glutamine, 100 μg/mL Gentamycin, 300 μg/mL Geneticin G-418) and differentiated with 10 μM retinoic acid (RA) for 5 days changing medium every 2 to 3 days. Prior to the treatment, cells were seeded onto 24-well plates at a cell density of 2×10^5 cells per well (DIV1). HCQ (25 μM) was applied on DIV2. After 24 h of incubation (DIV3), cells on 24-well plates were harvested in 60 μL RIPA-Buffer [50 mM Tris pH 7.4, 1% Nonidet P40, 0.25% Na-deoxy-cholate, 150 mM NaCl, 1 mM EDTA supplemented with freshly added 1 μM NaF, 0.2 mM Na-ortho-vanadate, 80 μM Glycerophosphate, protease (Calbiochem) and phosphatase (Sigma) inhibitor cocktail]. Protein concentration was determined by BCA assay (Pierce, ThermoFisher) and samples were adjusted to a uniform total protein concentration. Total Tau and phosphorylated Tau were determined by immunosorbent assay from Mesoscale Discovery (Phospho(Thr231)/Total Tau Kit K15121D, Mesoscale Discovery).
Tau Phosphorylation: SH-SY5Y-hTau441(V337M/R406W) cells were maintained in culture medium [DMEM medium, 10% FCS, 1% nonessential amino acids (NEAA), 1% l-glutamine, gentamycin (100 μg/ml), and geneticin G-418 (300 μg/ml)] and differentiated with 10 μM retinoic acid for 5 days changing medium every 2 to 3 days. […] Protein concentration was determined by BCA assay (Pierce, Thermo Fisher Scientific, Waltham, MA), and samples were adjusted to a uniform total protein concentration. Total tau and phosphorylated tau were determined by immunosorbent assay from Mesoscale Discovery [Phospho(Thr231)/Total Tau Kit K15121D, Mesoscale Discovery, Meso Scale Diagnostics]. […]

H4-hAPP cells = assay: Aβ secretion assay; format: cell-based, human
Method: (§1) Aβ Secretion: H4-hAPP cells were cultivated in Opti-MEM supplemented with 10% FCS, 1% penicillin/streptomycin 200 μg/mL Hygromycin B and 2.5 μg/mL Blasticidin S. H4-hAPP cells were seeded into 96 well plates (2×10^4 cells per well). On the next day, cells in 96 well plates were treated with compounds, R.I. (DAPT 400 nM) or vehicle. 24 h later, supernatants were collected for further Aβ measurements by MSD® (V-PLEX Aβ Peptide Panel 1 (6E10) Kit, K15200E, Mesoscale Discovery).
as §1, with “secretion: Human APP overexpressing” for “Secretion:”, “HCQ (0.25 μM, 2.5 μM and 25 μM) or the reference item” for “with compounds, R.I.”, “nM), a γ-secretase inhibitor” for “nM) or”
(§2) Cultivation and treatment of H4-hAPP cells: H4-hAPP cells were thawed and cultivated in Opti-MEM supplemented with 10% FCS, 1% penicillin/streptomycin 200 μg/ml Hygromycin B and 2.5 μg/ml Blasticidin S (=culture medium). H4-hAPP cells were seeded into 96 well plates (2×10^4 cells per well). On the next day, cells in 96 well plates were treated with TUDCA (100 μM (C1), 10 μM (C2), or 1.0 μM (C3)), R.I. (DAPT 400 nM) or vehicle. Alternatively, cells in 96 well plates were treated with 25 μM HCQ/0.1 μM TUDCA (C1), 2.5 μM HCQ/100 μM TUDCA (C2), and 2.5 μM HCQ/10 μM TUDCA (C3). 24 h later, supernatants were collected for further Aβ measurements by MSD. The experiment was performed in n=6 technical replicates for all groups.
(§3) Aβ38, 40, 42 measurement: Supernatants were diluted 1:10 and analyzed for human Aβ38, 40, and 42 with MSD® 96-well MULTI-SPOT® 6E10 Abeta Triplex Assay (Mesoscale Discovery, Rockville, MD). The immune assay was carried out according to the manual and plates are read on the MESO QuickPlex SQ 120 multiplexing instrument. Analyte levels were evaluated according to adequate Aβ peptide standards (MSD) as pg per mL.
Aβ Secretion: H4-hAPP cells were cultivated in Opti-MEM supplemented with 10% FCS, 1% penicillin/streptomycin, hygromycin B (200 μg/ml), and blasticidin S (2.5 μg/ml). H4-hAPP cells were seeded into 96-well plates (2×10^4 cells per well). On the next day, cells in 96-well plates were treated with compounds, reference item [400 nM N-[N-(3,5-difluorophenacetyl-1-alanyl)]-S-phenylglycine t-butyl ester (DAPT)], or vehicle. Twenty-four hours later, supernatants were collected for further Aβ measurements by MSD [V-PLEX Aβ Peptide Panel 1 (6E10) Kit, K15200E, Mesoscale Discovery].
as §2, with “Culture” for “Cultivation”, “T.I.,” for “TUDCA (100 μM (C1), 10 μM (C2), or 1.0 μM (C3)),”, “vehicle.” for “vehicle. Alternatively, cells in 96 well plates were treated with 25 μM HCQ/0.1 μM TUDCA (C1), 2.5 μM HCQ/100 μM TUDCA (C2), and 2.5 μM HCQ/10 μM TUDCA (C3).”
as §3, with “measurement in H4-hAPP cells:” for “measurement:”, “Discovery).” for “Discovery, Rockville, MD).”, “were” for “are”, “120.” for “120 multiplexing instrument.”

c1ccc2c(Cc3c[nH]c4ccccc34)c[nH]c2c1 [DIM, 3,3′-diindolylmethane]
effect in LPS induced neuroinflammation (BV2 cells) ([1]; posterior probability of a protective effect): protective | ischemia-induced apoptosis and autophagy [2]: protect | effect in LPS induced neuroinflammation (iPSCs) (iPSCs): strongly protective | LTP in APP/PS1 slices ([3]; 10 μM DIM, acute application): rescues LTP | late LTP in APP/PS1 slices ([3]; 3-hour pre-incubation with 10 μM DIM): no longer results in rescue | oxidative stress-induced apoptosis [4]: inhibit | effect in Aβ clearance (BV2 cells) (BV-2 cells): strongly protective

COc1ccc(S(=O)(=O)Nc2cc(-c3c(O)ccc4ccccc34)c(O)c3ccccc23)cc1 [C188-9, N-[4-hydroxy-3-(2-hydroxynaphthalen-1-yl)naphthalen-1-yl]-4-methoxybenzenesulfonamide]
phosphorylated tau 231 (ptau) ([5]; 10 μM, 24 h, relative to VC): significantly reduced | release of IL-1β ([1]; 0.3 μM and 0.6 μM, relative to LPS): significantly reduced | release of IL-6 ([1]; 0.6 μM, 24 h LPS stimulation, relative to LPS): significantly reduced | cell viability ([1]; C188-9 in LPS assay, results not shown): no adverse effects on cell viability | Aβ42: Aβ40 ratio (H4-hAPP cells; 1 μM, relative to VC): significantly reduced | endogenous Aβ1-42 (H4-hAPP cells; 1 μM, relative to VC): significantly reduced | cell viability (H4-hAPP cells; C188-9 in Aβ secretion assay, results not shown): no adverse effects on cell viability

Cc1c[nH]c(-c2cnc(NCCNc3ccc(C#N)cn3)nc2-c2ccc(Cl)cc2Cl)n1 [CHIR]
phosphorylated Tau ([5]; reference item, compared to vehicle control): significantly reduced

C[C@H](NC(=O)Cc1cc(F)cc(F)c1)C(=O)N[C@H](C(=O)OC(C)(C)C)c1ccccc1 [DAPT, N-[N-(3,5-difluorophenacetyl-1-alanyl)]-S-phenylglycine t-butyl ester]
Aβ species (Aβ1-38, 1-40 and 1-42) in supernatant (H4-hAPP cells; reference item, 400 nM, 24 h): significantly reduced all tested species

CCN(CCO)CCCC(C)Nc1ccnc2cc(Cl)ccc12 (racemic) [HCQ racemic free base]
late-LTP in APP/PS1 mice ([3]; 25 μM HCQ racemic free base): partial rescue | late-LTP in APP/PS1 mice ([3]; 50 μM HCQ racemic free base): diminished initial potentiation which did not last | late LTP in age-matched WT mice ([3]; 50 μM HCQ racemic free base, preliminary (n=1)): partially impaired | S1 fEPSP slope at the end of the experiment ([3]; 25 μM HCQ racemic free base): 118.003±7.753% | potentiation of S1 fEPSP slope after STET ([3]; 25 μM HCQ racemic free base): 155.545±12.309% | S1 fEPSP slope at the end of the experiment ([3]; 50 μM HCQ racemic free base): 119.117±8.167% | potentiation of S1 fEPSP slope after STET ([3]; 50 μM HCQ racemic free base): 128.809±8.116%
